In US20260364186A1, “Chemical Conjugates, Compositions, and Methods of Preparation and Use Thereof” (Transfection Holdings Limited, priority 2022, published 2026):

Columns and labels:
Assay type in all cases: cell-based, human
[1] = tested on: NZM40 (NRAS Q16H) melanoma cells; experiment: FACS uptake of BODIPY FL conjugates, 200 nM, 5 min (Example 2)
Experimental: FIG. 2. Conjugate compounds coupled to BODIPY FL were tested for uptake using 200 nM each conjugate and 5 minute incubation with melanoma cell line NZM11 (BRAF V600E mutant metastatic melanoma), melanoma cell line NZM40 (NRAS Q16H mutant metastatic melanoma) and melanoma cell line NZM9 (BRAF and NRAS wildtype metastatic melanoma). Mean fluorescent intensities (MFI). 2,000 cells (NZM11), 1,000 cells (NZM40) and 500-1,000 cells (NZM9). Cells were sorted by FACS. Bars represent mean±SD. Results were from a single experiment done in triplicate.
NZM40 is an adherent cell line which was originally derived from a metastatic melanoma from a patient, in 2004. This human metastatic melanoma is identified with code CBA-1381 from Cell bank Australia. […] Ras is a superfamily of proteins implicated in cell growth, survival and differentiation. NRAS (neuroblastoma rat sarcoma) was the first oncogene recognized in melanoma and mutations in NRAS account for 20% of all melanomas. NRAS mutations primarily occur at position 61 and involve amino acid change from glutamine (Q) to arginine (R), lysine (K), leucine (L) or histidine (H). These mutations block NRAS into a GTP-bound state damaging its GTPase activity (FIG. 1). Patients are usually older (>55 years) with previous UV exposure. See Garcia-Alverez et al., 2021.
For screening, NZM11, NZM40 and NZM9 cells were suspended at […] dispensed into 96 well plates and left to settle for 48 hours. Then, 10 μL of 10 mM stock solutions in DMSO for the conjugates were diluted with HBSS to afford 400 nM solution. Next, 400 nM compounds and DMSO solutions were diluted 1:1 with MEMα media to afford 200 nM solutions. After 48 hours the media was removed from the 96 well plates and 200 μL of 200 nM conjugates solutions dispensed to each well (in triplicate) and incubated for 5 minutes at 37 °C. After 5 minutes, the media was removed and cells washed with PBS. Then, 100 μL of TrypLE trypsin (ThermoFisher Scientific) were added to each well and incubated for 5 minutes at 37 °C after which, 100 μL of MEMα media were added and samples were sorted through FACS biosort. The FACS results output were represented as the mean of the fluorescence intensities (in arbitrary units) measured for cells sorted in every sample.

monocytes = experiment: FACS uptake of BODIPY FL conjugates in PBMCs (Example 3); settings: 135 nM
Experimental: (§1) FIG. 3A. Conjugate compounds coupled to BODIPY FL were tested for uptake using 135 nM each conjugate and 4.5 minute incubation with human lymphocytes, monocytes and neutrophils (from a healthy donor). Mean fluorescent intensities (MFI). 1,000 cells (lymphocytes), 500 cells (monocytes) and 250 cells (neutrophils) sorted by FACS. Bars represent mean±SD. Results represent a single experiment done in duplicate.
(§2) In addition to this, 25 mL of full blood was collected from a healthy donor in lithium-heparin vacutainer. Peripheral blood mononuclear cells (PBMCs) were collected after ficoll separation. PBMCs then were centrifuge at 400 g for 5 minutes. Supernatant was removed from the cells and resuspended with 20 mL of HBSS with a final concentration of 417,500 cells/mL. Then, 479 μL of cells suspension were poured into Eppendorf tube and 1000 μL of 200 nM drug solution in HBSS were added to afford 135 nM final drug concentration, incubated at 37 °C for 5 minutes. After incubation time, PBMCs were centrifuged at 400 g for 5 minutes. Supernatant was removed from the cells and pellet resuspended with 200 μL of HBSS. Suspension was transferred to 96 well-plate and run on FACS machine, approximately 1,000-250 cells analysed. The FACS results output represented the mean of the fluorescence intensities (in arbitrary units) measured for cells sorted in every sample.

neutrophils = experiment: as above; settings: 135 nM
Experimental: as §1, §2

Jurkat cells = experiment: FACS uptake of BODIPY FL conjugates in Jurkat cells (Example 3); settings: 200 nM
Experimental: FIG. 3B: Conjugate compounds coupled to BODIPY FL were tested for uptake using 200 nM each conjugate and 5 minute incubation with immortalized T lymphocyte cell line, Jurkat cells. Mean fluorescent intensities (MFI). 1,000 cells sorted by FACS. Bars represent mean±SD. Results represent a single experiment done in duplicate.
Materials and methods: Jurkat cells have been previously shown to be defective in the expression of two lipid phosphatases, PTEN (phosphatase and tensin homologue) and SHIP (SH2-domain-containing inositol polyphosphate 5′ phosphatase). The biological implications of SHIP deficiency in T cells remain under evaluation, but the loss of PTEN leads to activation of the phosphatidylinositol 3-kinase (PI3K)-signalling pathway. See Abraham and Weiss, 2004. This activation of PI3K protein is also on NZM40 melanoma cell line, and represents a key mutation for its sustained proliferation. See Silva et al., 2017. For these experiments, Jurkat cells were diluted on RPMI media (supplemented with 10% FBS+1% penicillin-streptomycin) to afford 400 cells/μL. 2 μL of 100 μM stock solutions in DMSO from 138 and pantothenic acid/pantothenic acid derivatives coupled to BODIPY were diluted with 998 μL of RPMI media (supplemented with 10% FBS+1% penicillin-streptomycin) to afford 200 nM solution. 100,000 cells were dispensed to Eppendorf tubes, centrifuged for 1.5 min at 5000 rcf and the supernatant was removed. The cells then were incubated with 500 μL of solutions at 200 nM for 4.5 min and 37 °C. After the incubation time, cells were centrifuged for 1.5 minutes at 5000 rcf. Supernatant was removed and cell pellet re-suspended in 200 μL fresh RPMI media, transferred to 96 well-plate and run on FACS machine, approximately 1,000 cells analysed.

[2] = tested on: HT29 (colorectal cancer cell line); experiment: FACS uptake of BODIPY FL conjugates (Example 4); settings: 200 nM, 5 min
Experimental: FIG. 4A: Conjugate compounds coupled to BODIPY FL were tested for uptake using 200 nM each conjugate and 5 minute incubation with colorectal cancer cell line HT29. Mean fluorescent intensities (MFI). 1,000 cells were sorted by FACS.
Materials and methods: The HT-29 line was originally isolated from a primary tumour in 1964 from a person. This cell line is positive for expression of N-ras and overexpression of p53 antigen. The human colon adenocarcinoma cell line HT29, is not only used to study the biology of human colon cancers, but it is receiving special interest in studies focused on food digestion and bioavailability due to the ability to express characteristics of mature intestinal cells. The application of this cell line to transport studies of drugs and food compounds is illustrated, especially when the effect of the mucus layer is considered or used as co-culture in combination with Caco-2 cells. These cells have shown a high rate of glucose consumption and therefore, they require high glucose concentration in the medium. Verhoeck et al., 2015.
For these experiments, HT-29 or MEF cells were diluted on αMEM media (supplemented with 10% FBS+1% penicillin-streptomycin) to give a 250 cells/μL suspension of which 200 μL were aliquoted into each well of a 96 well plate followed by incubation for 24 hours. Next, 2 μL of 100 μM stock solutions in DMSO from the conjugates coupled to BODIPY were diluted with 998 μL of αMEM media to give a 200 nM solution. After 24 hour incubation, media was removed and 200 μL of 138 and pantothenic acid/pantothenic acid derivatives coupled to BODIPY 200 nM solutions were added and cells were incubated for 5 minutes at 37 °C. After 5 minutes, the compounds and DMSO solutions were removed and cells were washed with PBS. Then, 100 μL of TrypLE trypsin were added to each well and incubated for 5 minutes at 37 °C. After this time, 100 μL of DMEM media were added to the wells and samples were sorted through FACS biosort. The studies were completed in duplicated wells.

| SMILES | uptake (fluorescence intensities) [1] | targeting / fluorescence intensities (monocytes) | targeting / fluorescence intensities (neutrophils) | uptake / targeting (Jurkat cells) | uptake (fluorescent intensities) [2] |
| --- | --- | --- | --- | --- | --- |
| CC1=CC(C)=[N+]2C1=Cc1ccc(CCCn3cc(CCNC(=O)/C=C\NC(=O)[C@H](O)C(C)(C)CO)nn3)n1[B-]2(F)F [Compound 128, (Z)—N-((((3-[4,4-Difluoro-5,7-dimethyl-4-bora-3a,4a-diaza-s-indacene-3-yl]propyl)-1H-1,2,3-triazol-4-yl)ethylamino)-3-oxoprop-1-enyl)-2,4-dihydroxy-3,3-dimethylbutanamide] | showed selectivity | significant intensities | significant intensities | showed targeting |  |
| CC1=CC(C)=[N+]2C1=Cc1ccc(CCCn3cc(CCNC(=O)/C=C/NC(=O)[C@H]4OC(C)(C)OCC4(C)C)nn3)n1[B-]2(F)F [Compound 127, (E)-N-((((3-[4,4-Difluoro-5,7-dimethyl-4-bora-3a,4a-diaza-s-indacene-3-yl]propyl)-1H-1,2,3-triazol-4-yl)ethylamino)-3-oxoprop-1-enyl)-2,2,5,5-tetramethyl-1,3-dioxane-4-carboxamide] | showed selectivity | showed targeting | showed targeting | showed targeting | moderately higher fluorescent intensities |
